The values that follow are results of earlier work, collected in article PMC12399788, “A Comparison of the Molecular Pharmacological Properties of Current Short, Long, and Ultra‐Long‐Acting β2‐Agonists Used for Asthma and COPD” (Pharmacology Research & Perspectives, 2025).

Some results are limits rather than exact numbers.

Data set [1] has as its system guinea pig tracheal. More on the design: method as in PMID 20402514. Particulars: guinea pig tracheal studies.
Data set [2] has as its system human trachea.
The test system of data set [3] is conscious guinea pigs. The note with it: equipotent nebulized agents.
For data set [4], the system named is human lung (mast cells). The note with it: histamine release from human lung (mast cells).

With `CCc1cc2c(cc1CC)CC(NC[C@H](O)c1ccc(O)c3[nH]c(=O)ccc13)C2` [Indacaterol, indacaterol], the duration result in data set [1] is reported as “over 12 h”.
With `COc1ccc(CC(C)NCC(O)c2ccc(O)c(NC=O)c2)cc1` (centres unmarked) [Formoterol, formoterol], the duration in data set [1] is listed as 1.2 h. In data set [2], the duration of action is 34 min and the “duration of action relative to salbutamol” value is given as 4.5 times longer. Besides, the bronchodilation duration in data set [3] is listed as 3 h.
`OCc1cc(C(O)CNCCCCCCOCCCCc2ccccc2)ccc1O` (centres unmarked) [Salmeterol, salmeterol]: the “response remaining (% maximal)” value in data set [4] (at 20 h) is given as 75%. Also, the “bronchodilation at 6 h” value in data set [3] (6 h) is recorded as “no reduction”.
`CC(C)(C)NCC(O)c1ccc(O)c(CO)c1` (centres unmarked) [Salbutamol, salbutamol]: the duration in data set [1] is given as 0.9 h. For the same compound, the duration of action in data set [2] was 7.6 min. For the same compound, in data set [4], the “time by which response was lost” value is at most 4 h. Further, the bronchodilation duration entry in data set [3] is listed as “less than 1.5 h”.
